These results are taken from ChEMBL document CHEMBL1158918, “Novel marine sponge amino acids, 10. Xestoaminols from Xestospongia sp” (1990).

Experiment [1] concerns Streptococcus pyogenes. Nature of the experiment: Antimicrobial activity against Streptococcus pyogenes at 10 ug/disk. The format is functional, organism-based.
Experiment [2] relates to Trichophyton mentagrophytes. Description: Antimicrobial activity against Trichophyton mentagrophytes at 100 ug/disk. As to conditions: read-out: IZ. The format is functional.
The subject of experiment [3] is Candida albicans. Description: Antimicrobial activity against Candida albicans at 100 ug/disk. The following applies: read-out: IZ. The format is functional.
Experiment [4] relates to Nippostrongylus brasiliensis. Description: Antihelminthic activity against Nippostrongylus brasiliensis 4 instar larvae assessed as reduction in viability at 50 ug/mL. The format is functional.
Experiment [5] deals with Streptococcus pyogenes. Description: Antimicrobial activity against Streptococcus pyogenes at 100 ug/disk. The following applies: read-out: IZ. It is filed as functional.
Experiment [6] can be described thus: Inhibition of reverse transcriptase at 1 mg/ml. Also noted: scale not given: the % may be the effect or the level left.
The next experiment deals with Staphylococcus aureus. Nature of the experiment: Antimicrobial activity against Staphylococcus aureus at 100 ug/disk. The format is functional. The following applies: read-out: IZ.
The test system of experiment [7] is Nippostrongylus brasiliensis. Nature of the experiment: Antihelminthic activity against Nippostrongylus brasiliensis 4 instar larvae assessed as reduction in motility at 50 ug/mL. It is filed as functional. Also noted: scale not given: the % may be the effect or the level left.
The subject of another experiment is Escherichia coli. Nature of the experiment: Antimicrobial activity against Escherichia coli at 100 ug/disk. The format is functional. The following applies: read-out: IZ.
The test system of experiment [8] is Nippostrongylus brasiliensis. Description: Antihelminthic activity against Nippostrongylus brasiliensis 4 instar larvae assessed as reduction in cast formation at 50 ug/mL. It is filed as functional. The arrangement: scale not given: the % may be the effect or the level left.
Experiment [9] deals with Candida albicans. Description: Antimicrobial activity against Candida albicans at 10 ug/disk. As to conditions: read-out: IZ.
Experiment [10] concerns Trichophyton mentagrophytes. Description: Antimicrobial activity against Trichophyton mentagrophytes at 10 ug/disk. It is filed as functional. The following applies: read-out: IZ.

Consider GENTAMICIN, for which the inhibition zone (IZ) in the experiment with Streptococcus pyogenes [1] turned out to be 10 mm.
As for `CC/C=C/CCCCCCC[C@@H](O)[C@H](C)N` (relative stereo) [XETOAMINOL A], the zone of inhibition at 100 µg/disc stood at 13 mm in experiment [2]; 7 mm in the experiment on Candida albicans [3]; 4 mm in the experiment with Streptococcus pyogenes [5]; 3 mm in the experiment on Staphylococcus aureus; 7 mm with Escherichia coli. Besides, the Activity in experiment [4] was determined as 100%; in [6], 97%; in experiment [7] it was 100%; in experiment [8], 90%.
Consider `Clc1ccc(COC(Cn2ccnc2)c2ccc(Cl)cc2Cl)c(Cl)c1` (stereo not drawn) [MICONAZOLE], for which the zone of inhibition at 10 µg/disc with Candida albicans [9] was 10 mm; in experiment [10], 11 mm.
For the molecule `CCCCCCCCCCC[C@@H](O)[C@H](C)N` (relative stereo), in [6], the Activity stood at 95%.
